Results as given in patent US20140057915A1, “KINASE INHIBITORS” (TOPIVERT PHARMA LIMITED, priority 2012, published 2014).

How the values were obtained:
Syk = Syk (Homo sapiens, UniProt P43405); experiment: Syk enzyme inhibition (FRET); assay type: biochemical
Method in brief: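 Kinase activity is measured on a dual-labelled synthetic peptide by FRET. ATP is supplied as an 800 μM solution for c-Src and a 60 μM solution for Syk. Compound is tested at four added concentrations, 4 to 0.004 μg/mL.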

GSK3α [1] = target: T1, GSK3α (Homo sapiens, UniProt P49840); experiment: GSK 3α enzyme inhibition (FRET), Method 1; assay type: biochemical; conditions: Table 4a1
T1 sequence (P49840 whole entry): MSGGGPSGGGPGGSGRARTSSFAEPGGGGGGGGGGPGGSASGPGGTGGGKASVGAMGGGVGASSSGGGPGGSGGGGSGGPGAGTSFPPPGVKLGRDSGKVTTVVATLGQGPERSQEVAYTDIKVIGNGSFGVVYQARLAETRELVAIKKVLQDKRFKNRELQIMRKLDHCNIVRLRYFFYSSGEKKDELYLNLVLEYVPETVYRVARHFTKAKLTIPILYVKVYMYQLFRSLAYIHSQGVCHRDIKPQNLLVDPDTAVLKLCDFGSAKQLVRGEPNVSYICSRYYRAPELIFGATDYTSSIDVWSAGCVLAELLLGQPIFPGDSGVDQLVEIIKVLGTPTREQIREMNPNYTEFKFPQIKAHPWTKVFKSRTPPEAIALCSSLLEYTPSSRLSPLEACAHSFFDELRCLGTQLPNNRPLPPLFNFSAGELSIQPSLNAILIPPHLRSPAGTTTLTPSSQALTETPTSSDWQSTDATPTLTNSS
Method in brief: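 Steps: preincubate GSK3α with compound 2 hr at room temperature; start reaction with peptide and ATP for 1 hr; develop with site-specific protease for 1 hr; measure fluorescence and take the coumarin/fluorescein ratio as the phosphorylation level.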

[2] = system: ICAM-1 expression, BEAS2B cells; experiment: Poly I:C-induced ICAM-1 expression in BEAS2B cells; assay type: cell-based; conditions: Homo sapiens, BEAS-2B; read-out: Poly IC induced ICAM1 in BEAS2B, IC50
Method in brief: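 Cell-based ELISA for surface ICAM-1 in human BEAS2B cells 18 h after transfection with the RNA-virus mimic poly I:C (1 μg/mL, with Oligofectamine), compounds added 2 h beforehand. OD450–655 divided by Crystal Violet OD595 per well; percent inhibition relative to vehicle.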

IL-8 release, PBMCs = experiment: LPS-induced IL-8 release in PBMC cells; assay type: cell-based; conditions: Homo sapiens, LPS stimulated, read-out: IC50 Values for Inhibition of Cytokine Release, PBMCs, IL-8
Method in brief: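 PBMCs from healthy donors pretreated with compound for 2 h, then stimulated with 1 ng/ml LPS (E. coli 0111:B4) for 24 h at 37 °C, 5% CO2. Supernatant IL-8 and TNFα measured by sandwich ELISA with fluorescence read-out.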

IL-8 release, HT29 cells = experiment: IL-1β-induced IL-8 release in HT29 cells; assay type: cell-based; conditions: Homo sapiens, HT-29; IL-1β stimulated; read-out: IC50 Values for Inhibition of Cytokine Release, HT29 cells, IL-8
Procedure: (d) IL-1β-Induced IL-8 Release in HT29 Cells
HT29 cells, a human colon adenocarcinoma cell line, are plated in a 96 well plate (24 hrs) and pre-treated with compounds at the desired concentration for 2 hours before addition of 5 ng/ml of IL-1β (Abeam) for 24 hours, Supernatants are harvested for IL-8 quantification by Sandwich ELISA (Duo-set, R&D System). The IC50 is determined from the dose response curve.

GSK3α [3] = target: T1, GSK3α; experiment: GSK 3α enzyme inhibition (FRET), Method 2; assay type: biochemical; conditions: Table 4a2, different laboratory
IFN gamma release, PBMCs = experiment: IFN gamma release in CD3/CD28 stimulated PBMC cells; assay type: cell-based; conditions: Homo sapiens, read-out: IC50 Values for Inhibition of Cytokine Release, PBMCs, IFNγ
[4] = Table 4a2, different laboratory

IC50 (Syk; Table 4a1) | IC50 (GSK3α [1]) | IC50 (Syk; [4]) | IC50 (IL-8 release, HT29 cells) | IC50 (GSK3α [3]) | Compound | IC50 [2] | IC50 (IL-8 release, PBMCs) | IC50 (IFN gamma release, PBMCs)
0.203 µM | 2.99 µM | – | – | – | COc1ccc(-n2nc(C3(C)COC3)cc2NC(=O)Nc2ccc(Oc3ccnc(Nc4cccc(C(=O)NCCN5CCOCC5)c4)n3)c3ccccc23)cc1 [Example 23, 3-((4-((4-(3-(1-(4-methoxyphenyl)-3-(3-methyloxetan-3-yl)-1H-pyrazol-5-yl)ureido)naphthalen-1-yl)oxy)pyrimidin-2-yl)amino)-N-(2-morpholinoethyl)benzamide] | 0.0277 µM | – | –
0.003 µM | 7.95 µM | 0.224 µM | 0.0041 µM | ≥ 13.2 µM | COc1cc(Nc2nccc(Oc3ccc(NC(=O)Nc4cc(C(C)C)nn4-c4ccc(C)cc4)c4ccccc34)n2)cc(C(=O)NCCN2CCOCC2)c1 [Example 8, 3-((4-((4-(3-(3-Isopropyl-1-(p-tolyl)-1H-pyrazol-5-yl)ureido)naphthalen-1-yl)oxy)pyrimidin-2-yl)amino)-5-methoxy-N-(2-morpholinoethyl)benzamide] | 0.0011 µM | 0.0018 µM | –
0.067 µM | > 1.39 µM | – | – | – | COc1ccc(-n2nc(C(C)(C)C)cc2NC(=O)Nc2ccc(Oc3ccnc(Nc4cc(Br)cc(C(N)=O)c4)n3)c3ccccc23)cc1 [Example 42, 3-bromo-5-((4-((4-(3-(3-(tert-butyl)-1-(4-methoxyphenyl)-1H-pyrazol-5-yl)ureido)naphthalen-1-yl)oxy)pyrimidin-2-yl)amino)benzamide] | 0.0023 µM | – | –
– | > 12.6 µM | – | – | 12.1 µM | Cc1ccc(-n2nc(C(C)C)cc2NC(=O)Nc2ccc(Oc3ccnc(Nc4cc(C(=O)NCCN5CCOCC5)cc(C(F)(F)F)c4)n3)c3ccccc23)cc1 [Example 7, 3-((4-((4-(3-(3-isopropyl-1-(p-tolyl)-1H-pyrazol-5-yl)ureido)naphthalen-1-yl)oxy)pyrimidin-2-yl)amino)-N-(2-morpholinoethyl)-5-(trifluoromethyl)benzamide] | 0.0015 µM | 0.0024 µM | –
0.01 µM | 2.86 µM | 0.066 µM | 0.0102 µM | 6.97 µM | COc1cc(Nc2cc(Oc3ccc(NC(=O)Nc4cc(C(C)(C)C)nn4-c4ccc(C)cc4)c4ccccc34)ccn2)cc(C(=O)NCCN2CCOCC2)c1 [Example 1, 3-((4-((4-(3-(3-(tert-Butyl)-1-(p-tolyl)-1H-pyrazol-5-yl)ureido)naphthalen-1-yl)oxy)pyridin-2-yl)amino)-5-methoxy-N-(2-morpholinoethyl)benzamide] | 0.0034 µM | 0.0024 µM | 0.003 µM
0.032 µM | > 13.3 µM | – | – | ≥ 13.3 µM | COc1cc(Nc2nccc(Oc3ccc(NC(=O)Nc4cc(C5CC5)nn4-c4ccc(C)cc4)c4ccccc34)n2)cc(C(=O)NCCN2CCOCC2)c1 [Example 50, 3-((4-((4-(3-(3-cyclopropyl-1-(p-tolyl)-1H-pyrazol-5-yl)ureido)naphthalen-1-yl)oxy)pyrimidin-2-yl)amino)-5-methoxy-N-(2-morpholinoethyl)benzamide] | 0.0166 µM | 0.0073 µM | –
0.003 µM | > 13 µM | – | – | 7.26 µM | COc1ccc(-n2nc(C(C)C)cc2NC(=O)Nc2ccc(Oc3ccnc(Nc4cc(OC)cc(C(=O)NCCN5CCOCC5)c4)n3)c3ccccc23)cc1 [Example 53, 3-((4-((4-(3-(3-isopropyl-1-(4-methoxyphenyl)-1H-pyrazol-5-yl)ureido)naphthalen-1-yl)oxy)pyrimidin-2-yl)amino)-5-methoxy-N-(2-morpholinoethyl)benzamide] | 0.004 µM | 0.0031 µM | –
0.075 µM | > 14 µM | 0.126 µM | – | 9.95 µM | COCCNC(=O)c1cc(Nc2nccc(Oc3ccc(NC(=O)Nc4cc(C(C)C)nn4-c4ccc(OC)cc4)c4ccccc34)n2)cc(OC)c1 [Example 11, 3-((4-((4-(3-(3-Isopropyl-1-(4-methoxyphenyl)-1H-pyrazol-5-yl)ureido)naphthalen-1-yl)oxy)pyrimidin-2-yl)amino)-5-methoxy-N-(2-methoxyethyl)benzamide] | 0.0012 µM | 0.003 µM | –
– | – | 0.022 µM | 0.0054 µM | 11.3 µM | C#Cc1cc(Nc2nccc(Oc3ccc(NC(=O)Nc4cc(C(C)C)nn4-c4ccc(C)cc4)c4ccccc34)n2)cc(C(=O)NCCN2CCOCC2)c1 [Example 46, 3-ethynyl-5-((4-((4-(3-(3-isopropyl-1-(p-tolyl)-1H-pyrazol-5-yl)ureido)naphthalen-1-yl)oxy)pyrimidin-2-yl)amino)-N-(2-morpholinoethyl)benzamide] | – | 0.0011 µM | 0.0027 µM
0.649 µM | > 13 µM | – | – | – | COc1cc(Nc2nccc(Oc3ccc(NC(=O)Nc4cc(C5(C)CC5)nn4-c4ccc(C)cc4)c4ccccc34)n2)cc(C(=O)NCCN2CCOCC2)c1 [Example 51, 3-methoxy-5-((4-((4-(3-(3-(1-methylcyclopropyl)-1-(p-tolyl)-1H-pyrazol-5-yl)ureido)naphthalen-1-yl)oxy)pyrimidin-2-yl)amino)-N-(2-morpholinoethyl)benzamide] | 0.0036 µM | – | –
– | – | 0.025 µM | 0.0062 µM | ≥ 12.6 µM | C#Cc1cc(Nc2nccc(Oc3ccc(NC(=O)Nc4cc(C(C)(C)C)nn4-c4ccc(N(C)C)cc4)c4ccccc34)n2)cc(C(=O)NCCN2CCOCC2)c1 [Example 80, 3-((4-((4-(3-(3-(tert-Butyl)-1-(4-(dimethylamino)phenyl)-1H-pyrazol-5-yl)ureido)naphthalen-1-yl)oxy)pyrimidin-2-yl)amino)-5-ethynyl-N-(2-morpholinoethyl)-benzamide] | – | 0.0015 µM | 0.0018 µM
– | 8.03 µM | – | – | 6.51 µM | COc1cc(Nc2nccc(Oc3ccc(NC(=O)Nc4cc(C(F)(F)C(F)(F)F)nn4-c4ccc(C)cc4)c4ccccc34)n2)cc(C(=O)NCCN2CCOCC2)c1 [Example 9] | 0.0069 µM | 0.0023 µM | 0.0073 µM

Compound | IC50 (Syk; Table 4a1) | IC50 (GSK3α [1]) | IC50 (Syk; [4]) | IC50 (IL-8 release, HT29 cells) | IC50 (GSK3α [3]) | IC50 [2] | IC50 (IL-8 release, PBMCs) | IC50 (IFN gamma release, PBMCs)
C#Cc1cc(Nc2nccc(Oc3ccc(NC(=O)Nc4cc(C(C)(C)C)nn4-c4ccc(OC)cc4)c4ccccc34)n2)cc(C(=O)NCCN2CCOCC2)c1 [Example 77, 3-((4-((4-(3-(3-(tert-Butyl)-1-(4-methoxyphenyl)-1H-pyrazol-5-yl)ureido)-naphthalen-1-yl)oxy)pyrimidin-2-yl)amino)-5-ethynyl-N-(2-morpholinoethyl)benzamide] | – | – | 0.018 µM | 0.002 µM | 5.95 µM | – | 0.0011 µM | 0.0008 µM
